Results taken from patent publication US4210639A, “5'-Deoxy-5'-(isobutylthio)-3-deazaadenosine, method of making same and its antiviral effect on Rous sarcoma virus and Gross murine leukemia virus” (The United States of America as represented by the …, priority 1978, dated 1980).
pIC50, pKi: −log10 of the molar value. Entries after “also recorded” stand apart in the source; their conditions may differ. Like-named read-outs stand apart in the source and are kept apart here.

What was measured:
RSV-BH = experiment: Focus formation (oncogenic transformation) by RSV-BH in chick embryo cells; type: cell-based; details: for inhibition at 30 µM / inhibition at 100 µM: Gallus gallus
Experimental: Additionally, the ability of these compounds to inhibit the oncogenic transformation of chick embryo cells induced by RSV-BH was examined.
*Compounds were added 18 h after infection and foci were counted 7 days

AdoHcy hydrolase [1] = molecular target: T1, AdoHcy hydrolase (Bos taurus, UniProt Q3MHL4); experiment: Inhibition of AdoHcy hydrolase from cow liver; type: biochemical; details: for pIC50: read-out: I50
T1 construct: AdoHcy hydrolase from cow liver; from tissue; host or cells: cow liver
T1 sequence (Q3MHL4 2-432 limits assumed): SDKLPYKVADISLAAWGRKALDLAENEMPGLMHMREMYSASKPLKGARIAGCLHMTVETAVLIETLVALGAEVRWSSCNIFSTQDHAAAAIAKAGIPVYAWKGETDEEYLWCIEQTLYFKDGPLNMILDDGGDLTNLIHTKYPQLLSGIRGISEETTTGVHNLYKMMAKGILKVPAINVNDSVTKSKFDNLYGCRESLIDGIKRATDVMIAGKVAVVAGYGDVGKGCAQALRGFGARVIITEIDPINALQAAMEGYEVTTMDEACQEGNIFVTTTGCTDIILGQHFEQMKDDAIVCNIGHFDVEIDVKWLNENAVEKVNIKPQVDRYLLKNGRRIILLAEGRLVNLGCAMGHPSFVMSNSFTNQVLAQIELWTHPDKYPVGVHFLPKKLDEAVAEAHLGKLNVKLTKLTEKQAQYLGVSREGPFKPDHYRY

chick embryo cells = experiment: Effects on host chick embryo cells; type: cell-based; details: 0.1 mM
oncogenic virus = experiment: Oncogenic virus-induced malignant transformation / viral replication, general statements; type: cell-based
cells = experiment: Tolerance by cells; type: cell-based
mouse embryo cells = experiment: Multiplication/cytotoxicity of mouse embryo host cells after 4 days exposure; type: cell-based, Swiss mouse; details: 30 to 100 μM
Experimental: (§1) Each point represents the mean number of UV-XC plaques per culture (triplicate assays)± the standarad deviation. The drug was dissolved in DMSO at the time of virus inoculation and was present throughout the incubation period. (B) Effect of treatment on the multiplication of host cells after 4 days exposure to drug. Each point represents the mean number of viable mouse embryo cells per culture ± the standard deviation. The initial number of cells plated was 3.5×10^5 cells.
(§2) The ability of 5'-deoxy-5'-(isobutylthio)-3-deazaadenosine to inhibit replication of Gross MLV in mouse embryo cells was tested. […] The selectivity ratio (i.e., the highest noncytotoxic concentration of drug over the lowest effective concentration of drug) was about 10.

AdoHcy hydrolase [2] = experiment: Hydrolysis of the compound by AdoHcy hydrolase; type: biochemical
Gross MLV = experiment: Replication of Gross MLV in mouse embryo cells (UV-XC plaque assay); type: cell-based, Swiss mouse
Experimental: as §1, §2

methyltransferases = details: AdoMet-utilizing methyltransferases; cited from earlier work
[3] = 0.03 mM, added 18 h after infection, counted 7 days later
[4] = 0.1 mM, added 18 h after infection, counted 7 days later
[5] = 0.1 mM, added 18 h after infection, counted 7 days later, read-out: % Inhibition of focus formation
[6] = AdoHcy hydrolase from cow liver
[7] = non-competitive inhibition of AdoHcy hydrolase
[8] = 168 h, read-out: Reduction of focus formation in RSV-BH infected cells

Nc1nccc2c1ncn2[C@@H]1O[C@H](CSCC[C@H](N)C(=O)O)[C@@H](O)[C@H]1O [3-Deazaadenosylhomocysteine]
Effect on focus formation / RSV activity (in words) (RSV-BH): Neither 3-deaza-AdoHcy nor 9-[5'-deoxy-5'-(methylthio)- β-D-arabinofuranosyl]adenine had any significant effect on focus formation | No. of Foci (RSV-BH; [3]): 330 | No. of Foci (RSV-BH; [4]): 276 | inhibition at 30 µM (RSV-BH; [3]): 0% | inhibition at 100 µM (RSV-BH; [5]): 16%

CSC[C@H]1O[C@@H](n2cnc3c(N)ncnc32)[C@@H](O)[C@@H]1O [9-[5'-deoxy-5'-(methylthio)-β-D-arabinofuranosyl]-adenine]
Type of inhibition of AdoHcy hydrolase (AdoHcy hydrolase [1]): non-competitive | pIC50 (AdoHcy hydrolase [1]; [6]): 3.37 | pKi (AdoHcy hydrolase [1]; [7]): 3.30 | Effect on focus formation / RSV activity (in words) (RSV-BH): Neither 3-deaza-AdoHcy nor 9-[5'-deoxy-5'-(methylthio)- β-D-arabinofuranosyl]adenine had any significant effect on focus formation | No. of Foci (RSV-BH; [3]): 274 | No. of Foci (RSV-BH; [4]): 298 | inhibition at 30 µM (RSV-BH; [3]): 17% | inhibition at 100 µM (RSV-BH; [5]): 9%

Nc1nccc2c1ncn2[C@@H]1O[C@H](CO)[C@@H](O)[C@H]1O [3-Deazaadenosine, 4-amino-1-β-D-ribofuranosyl [4,5-c]pyridine]
Inhibition of AdoHcy hydrolase (in words) (AdoHcy hydrolase [1]): most potent inhibitor of AdoHcy hydrolase | Type of inhibition of AdoHcy hydrolase (AdoHcy hydrolase [1]): competitive inhibitor | pIC50 (AdoHcy hydrolase [1]; AdoHcy hydrolase): 5.10 | pKi (AdoHcy hydrolase [1]; competitive inhibition of AdoHcy hydrolase): 5.52 | Potency relative to 5'-deoxy-5'-S-isobutyl-adenosine as inhibitor of AdoHcy hydrolase (AdoHcy hydrolase [1]; nearly 100-fold more potent than 5'-deoxy-5'-S-isobutyl-adenosine): ~100 fold | Effect on oncogenic transformation induced by Rous sarcoma virus and on its infectivity (RSV-BH): powerful, although reversible, effect | Sensitivity to drug by phase of virus replication (RSV-BH): maximal during the phase of virus replication which required the synthesis of viral mRNA and protein | No. of Foci (RSV-BH; [3]): 106 | No. of Foci (RSV-BH; [4]): 17 | inhibition at 100 µM (RSV-BH; [8]): 95% | inhibition at 30 µM (RSV-BH; [3]): 68% | inhibition at 100 µM (RSV-BH; [5]): 95% | Effects on the host cells (chick embryo cells): without noticeable effects on the host cells | Ability to inhibit viral replication, compared between the two compounds (oncogenic virus): almost equal

Nc1ncnc2c1ncn2[C@@H]1O[C@H](CNCCC(N)C(=O)O)[C@@H](O)[C@H]1O (stereo partly drawn) [Nγ-adenosyl-α,γ-diamino-butyric acid]
Type of inhibition of AdoHcy hydrolase (AdoHcy hydrolase [1]): non-competitive | pIC50 (AdoHcy hydrolase [1]; [6]): 3.85 | pKi (AdoHcy hydrolase [1]; [7]): 3.52

CC(C)CSC[C@H]1O[C@@H](n2cnc3c(N)ncnc32)[C@H](O)[C@@H]1O [5'-deoxy-5'-S-isobutyladenosine]
Inhibition of AdoHcy hydrolase (in words) (AdoHcy hydrolase [1]): potent inhibitors of AdoHcy hydrolase | pIC50 (AdoHcy hydrolase [1]; [6]): < 3.00 | Tolerance by cells (cells): well tolerated by cells

CC(C)CSC[C@H]1O[C@@H](n2cnc3c(N)nccc32)[C@H](O)[C@@H]1O [5'-Deoxy-5'-(isobutylthio)-3-deazaadenosine]
Cytotoxicity (mouse embryo cells): cytotoxicity was observed | Inhibition of AdoHcy hydrolase (in words) (AdoHcy hydrolase [1]): potent inhibitors of AdoHcy hydrolase; also recorded: good activity | Type of inhibition of AdoHcy hydrolase (AdoHcy hydrolase [1]): non-competitive inhibitor | pIC50 (AdoHcy hydrolase [1]; [6]): 3.55 | Type of inhibition of AdoHcy hydrolase (AdoHcy hydrolase [1]; listed as 5'-deoxy-(isobutylthio)-3-deazaadenosine): non-competitive | Ki relative to the Ki of 3-deazaadenosine (AdoHcy hydrolase [1]; times higher than Ki of 3-deazaadenosine): about 100 times | Effect on focus formation / RSV activity (in words) (RSV-BH): good antiviral; also recorded: just as effective as 3-deazaadenosine itself; also recorded: has shown activity | No. of Foci (RSV-BH; [3]): 93 | No. of Foci (RSV-BH; [4]): 3 | inhibition at 100 µM (RSV-BH; [8]): 95% | inhibition at 30 µM (RSV-BH; [3]): 72% | inhibition at 100 µM (RSV-BH; [5]): 99% | Hydrolysis by AdoHcy hydrolase (AdoHcy hydrolase [2]): not to be hydrolyzed | Effects on the host cells (chick embryo cells): without noticeable effects on the host cells | Ability to inhibit viral replication, compared between the two compounds (oncogenic virus): almost equal | Reversal of malignant transformation induced by oncogenic virus (oncogenic virus): will reverse the malignant transformation | inhibition at 3 µM (Gross MLV; 3 μM, Gross MLV in mouse embryo cells, read-out: Inhibition of plaque formation in the indicator XC cells): 85% | Inhibition of virus replication (in words) (Gross MLV; 30 to 100 μM, Gross MLV in mouse embryo cells): Complete inhibition | Selectivity ratio (highest noncytotoxic concentration over lowest effective concentration) (Gross MLV; Gross MLV in mouse embryo cells): about 10 | Antiviral activity against Gross murine leukemia virus (in words) (Gross MLV; mouse embryo cells): good antiviral; also recorded: has shown activity | Tolerance by cells (cells): well tolerated by cells

Nc1ncnc2c1ncn2[C@@H]1O[C@H](CSCC[C@H](N)C(=O)O)[C@@H](O)[C@H]1O [Adenosylhomocysteine, S-adenosyl-L-homocysteine]
Inhibition of methyltransferases (methyltransferases): inhibit competitively most of the methyltransferases; also recorded: competitive inhibitor
